Measured values from ChEMBL document CHEMBL4138123, “Design, synthesis and biological evaluation of novel pyrazolochalcones as potential modulators of PI3K/Akt/mTOR pathway and inducers of apoptosis in breast cancer cells” (Eur J Med Chem, 2017).
pIC50: −log10 of the molar value.

Legend:
SW-620 [1] = test: Cytotoxicity against human SW620 cells assessed as growth inhibition after 48 hrs by sulforhodamine B assay; format: functional; conditions: SW-620, 48 h
K562 [2] = test: Cytotoxicity against human K562 cells assessed as growth inhibition after 48 hrs by sulforhodamine B assay; format: functional; conditions: K562, 48 h
MCF7 = test: Cytotoxicity against human MCF7 cells assessed as growth inhibition after 48 hrs by MTT assay; format: functional, cell-based; conditions: MCF7, 48 h
ACHN = test: Cytotoxicity against human ACHN cells assessed as growth inhibition after 48 hrs by sulforhodamine B assay; format: functional
RPMI-8226 [3] = test: Cytotoxicity against human RPMI8226 cells assessed as growth inhibition after 48 hrs by sulforhodamine B assay; format: functional; conditions: RPMI-8226, 48 h
UACC-62 [4] = test: Cytotoxicity against human UACC62 cells assessed as cell growth at 100 uM after 48 hrs by sulforhodamine B assay relative to control; format: functional; conditions: UACC-62, 48 h, read-out: Activity
OVCAR-5 = test: Cytotoxicity against human OVCAR5 cells assessed as cell growth at 1 uM after 48 hrs by sulforhodamine B assay relative to control; format: functional; conditions: OVCAR-5, 48 h, read-out: Activity
RPMI-8226 [5] = test: Cytotoxicity against human RPMI8226 cells assessed as cell growth at 0.1 uM after 48 hrs by sulforhodamine B assay relative to control; format: functional; conditions: RPMI-8226, 48 h, read-out: Activity
OVCAR-4 = test: Cytotoxicity against human OVCAR4 cells assessed as cell growth at 0.01 uM after 48 hrs by sulforhodamine B assay relative to control; format: functional; conditions: OVCAR-4, 48 h, read-out: Activity
HL-60(TB) = test: Cytotoxicity against human HL-60(TB) cells assessed as cell growth at 0.1 uM after 48 hrs by sulforhodamine B assay relative to control; format: functional; conditions: HL-60, 48 h, read-out: Activity
PC-3 = test: Cytotoxicity against human PC3 cells assessed as cell growth at 0.1 uM after 48 hrs by sulforhodamine B assay relative to control; format: functional; conditions: PC-3, 48 h, read-out: Activity
HCT-15 = test: Cytotoxicity against human HCT15 cells assessed as cell growth at 0.1 uM after 48 hrs by sulforhodamine B assay relative to control; format: functional; conditions: HCT-15, 48 h, read-out: Activity
SN12C = test: Cytotoxicity against human SN12C cells assessed as cell growth at 1 uM after 48 hrs by sulforhodamine B assay relative to control; format: functional; conditions: read-out: Activity
U-251 = test: Cytotoxicity against human U251 cells assessed as cell growth at 100 uM after 48 hrs by sulforhodamine B assay relative to control; format: functional; conditions: U-251, 48 h, read-out: Activity
HCT-116 = test: Cytotoxicity against human HCT116 cells assessed as cell growth at 0.01 uM after 48 hrs by sulforhodamine B assay relative to control; format: functional; conditions: HCT-116, 48 h, read-out: Activity
OVCAR-8 = test: Cytotoxicity against human OVCAR8 cells assessed as cell growth at 100 uM after 48 hrs by sulforhodamine B assay relative to control; format: functional; conditions: OVCAR-8, 48 h, read-out: Activity
SF-268 = test: Cytotoxicity against human SF268 cells assessed as cell growth at 1 uM after 48 hrs by sulforhodamine B assay relative to control; format: functional; conditions: SF-268, 48 h, read-out: Activity
BT-549 = test: Cytotoxicity against human BT549 cells assessed as cell growth at 10 uM after 48 hrs by sulforhodamine B assay relative to control; format: functional; conditions: BT-549, 48 h, read-out: Activity
KM12 [6] = test: Cytotoxicity against human KM12 cells assessed as cell growth at 0.1 uM after 48 hrs by sulforhodamine B assay relative to control; format: functional; conditions: KM12, 48 h, read-out: Activity
KM12 [7] = test: Cytotoxicity against human KM12 cells assessed as cell growth at 10 uM after 48 hrs by sulforhodamine B assay relative to control; format: functional; conditions: KM12, 48 h, read-out: Activity
DU-145 [8] = test: Cytotoxicity against human DU145 cells assessed as cell growth at 100 uM after 48 hrs by sulforhodamine B assay relative to control; format: functional; conditions: DU-145, 48 h, read-out: Activity
SW-620 [9] = test: Cytotoxicity against human SW620 cells assessed as cell growth at 100 uM after 48 hrs by sulforhodamine B assay relative to control; format: functional; conditions: SW-620, 48 h, read-out: Activity
NCI-H23 = test: Cytotoxicity against human NCI-H23 cells assessed as cell growth at 0.01 uM after 48 hrs by sulforhodamine B assay relative to control; format: functional; conditions: NCI-H23, 48 h, read-out: Activity
786-0 = test: Cytotoxicity against human 786-0 cells assessed as cell growth at 10 uM after 48 hrs by sulforhodamine B assay relative to control; format: functional; conditions: 786-0, 48 h, read-out: Activity
K562 [10] = test: Cytotoxicity against human K562 cells assessed as cell growth at 0.1 uM after 48 hrs by sulforhodamine B assay relative to control; format: functional; conditions: K562, 48 h, read-out: Activity
SK-OV-3 = test: Cytotoxicity against human SKOV3 cells assessed as cell growth at 10 uM after 48 hrs by sulforhodamine B assay relative to control; format: functional; conditions: SK-OV-3, 48 h, read-out: Activity
SW-620 [11] = test: Cytotoxicity against human SW620 cells assessed as cell growth at 1 uM after 48 hrs by sulforhodamine B assay relative to control; format: functional; conditions: SW-620, 48 h, read-out: Activity
DU-145 [12] = test: Cytotoxicity against human DU145 cells assessed as cell growth at 10 uM after 48 hrs by sulforhodamine B assay relative to control; format: functional; conditions: DU-145, 48 h, read-out: Activity
UACC-62 [13] = test: Cytotoxicity against human UACC62 cells assessed as cell growth at 0.01 uM after 48 hrs by sulforhodamine B assay relative to control; format: functional; conditions: UACC-62, 48 h, read-out: Activity
NCI-H322M [14] = test: Cytotoxicity against human NCI-H322M cells assessed as cell growth at 100 uM after 48 hrs by sulforhodamine B assay relative to control; format: functional; conditions: read-out: Activity
MDA-MB-435 [15] = test: Cytotoxicity against human MDA-MB-435 cells assessed as cell growth at 1 uM after 48 hrs by sulforhodamine B assay relative to control; format: functional; conditions: MDA-MB-435, 48 h, read-out: Activity
SF-539 = test: Cytotoxicity against human SF539 cells assessed as cell growth at 1 uM after 48 hrs by sulforhodamine B assay relative to control; format: functional; conditions: SF-539, 48 h, read-out: Activity
RPMI-8226 [16] = test: Cytotoxicity against human RPMI8226 cells assessed as cell growth at 1 uM after 48 hrs by sulforhodamine B assay relative to control; format: functional; conditions: RPMI-8226, 48 h, read-out: Activity
NCI-H322M [17] = test: Cytotoxicity against human NCI-H322M cells assessed as cell growth at 0.1 uM after 48 hrs by sulforhodamine B assay relative to control; format: functional; conditions: read-out: Activity
SK-MEL-28 = test: Cytotoxicity against human SK-MEL-28 cells assessed as cell growth at 100 uM after 48 hrs by sulforhodamine B assay relative to control; format: functional; conditions: SK-MEL-28, 48 h, read-out: Activity
MDA-MB-435 [18] = test: Cytotoxicity against human MDA-MB-435 cells assessed as cell growth at 0.01 uM after 48 hrs by sulforhodamine B assay relative to control; format: functional; conditions: MDA-MB-435, 48 h, read-out: Activity

Compound: COc1ccc(-c2cc(/C=C/C(=O)c3ccc4c(c3)OCO4)[nH]n2)cc1OC
- GI50 (SW-620 [1]): 1.5 µM
- GI50 (K562 [2]): 0.61 µM
- pIC50 (MCF7): 5.82
- GI50 (ACHN): 1.59 µM
- GI50 (RPMI-8226 [3]): 0.37 µM

Compound: COc1cc(-c2cc(/C=C/C(=O)c3ccc(N)cc3)[nH]n2)cc(OC)c1OC
- growth at 100 µM (UACC-62 [4]): -92%
- growth at 1 µM (OVCAR-5): 89%
- growth at 0.1 µM (RPMI-8226 [5]): 97%
- growth at 0.01 µM (OVCAR-4): 85%
- growth at 0.1 µM (HL-60(TB)): 99%
- growth at 0.1 µM (PC-3): 94%
- GI50 (SW-620 [1]): 2.05 µM
- LC50 (lethal concentration, 50% net cell kill) (SW-620 [1]): > 100 µM
- TGI (SW-620 [1]): 6.37 µM
- GI50 (K562 [2]): 0.72 µM
- LC50 (concentration killing 50% of cells) (K562 [2]): > 100 µM
- TGI (K562 [2]): 23.6 µM
- growth at 0.1 µM (HCT-15): 94%
- growth at 1 µM (SN12C): 85%
- growth at 100 µM (U-251): -98%
- growth at 0.01 µM (HCT-116): 95%
- growth at 100 µM (OVCAR-8): -91%
- growth at 1 µM (SF-268): 81%
- growth at 10 µM (BT-549): -89%
- growth at 0.1 µM (KM12 [6]): 98%
- growth at 10 µM (KM12 [7]): -67%
- growth at 100 µM (DU-145 [8]): -98%
- growth at 100 µM (SW-620 [9]): -40%
- growth at 0.01 µM (NCI-H23): 102%
- growth at 10 µM (786-0): -19%
- growth at 0.1 µM (K562 [10]): 94%
- growth at 10 µM (SK-OV-3): -9%
- growth at 1 µM (SW-620 [11]): 82%
- growth at 10 µM (DU-145 [12]): -50%
- growth at 0.01 µM (UACC-62 [13]): 99%
- growth at 100 µM (NCI-H322M [14]): -89%
- pIC50 (MCF7): 5.80
- growth at 1 µM (MDA-MB-435 [15]): 88%
- growth at 1 µM (SF-539): 69%
- growth at 1 µM (RPMI-8226 [16]): 28%
- growth at 0.1 µM (NCI-H322M [17]): 103%
- growth at 100 µM (SK-MEL-28): -83%
- GI50 (ACHN): 1.61 µM
- LC50 (ACHN): 8.4 µM
- TGI (ACHN): 3.67 µM
- GI50 (RPMI-8226 [3]): 0.47 µM
- LC50 (RPMI-8226 [3]): > 100 µM
- TGI (RPMI-8226 [3]): 2.77 µM
- growth at 0.01 µM (MDA-MB-435 [18]): 90%

Compound: COc1ccc(C(=O)/C=C/c2cc(-c3ccc(OC)c(OC)c3)n[nH]2)cc1OC
- growth at 100 µM (UACC-62 [4]): -49%
- growth at 1 µM (OVCAR-5): 76%
- growth at 0.1 µM (RPMI-8226 [5]): 91%
- growth at 0.01 µM (OVCAR-4): 106%
- growth at 0.1 µM (HL-60(TB)): 101%
- growth at 0.1 µM (PC-3): 95%
- GI50 (SW-620 [1]): 1.5 µM
- TGI (SW-620 [1]): 5.41 µM
- GI50 (K562 [2]): 0.619 µM
- TGI (K562 [2]): > 100 µM
- growth at 0.1 µM (HCT-15): 95%
- growth at 1 µM (SN12C): 85%
- growth at 100 µM (U-251): -53%
- growth at 0.01 µM (HCT-116): 94%
- growth at 100 µM (OVCAR-8): -15%
- growth at 1 µM (SF-268): 74%
- growth at 10 µM (BT-549): -87%
- growth at 0.1 µM (KM12 [6]): 100%
- growth at 10 µM (KM12 [7]): -80%
- growth at 100 µM (DU-145 [8]): -100%
- growth at 100 µM (SW-620 [9]): -27%
- growth at 0.01 µM (NCI-H23): 101%
- growth at 10 µM (786-0): -32%
- growth at 0.1 µM (K562 [10]): 97%
- growth at 10 µM (SK-OV-3): 9%
- growth at 1 µM (SW-620 [11]): 66%
- growth at 10 µM (DU-145 [12]): -34%
- growth at 0.01 µM (UACC-62 [13]): 95%
- growth at 100 µM (NCI-H322M [14]): -48%
- pIC50 (MCF7): 6.10
- growth at 1 µM (MDA-MB-435 [15]): 87%
- growth at 1 µM (SF-539): 35%
- growth at 1 µM (RPMI-8226 [16]): 17%
- growth at 0.1 µM (NCI-H322M [17]): 105%
- growth at 100 µM (SK-MEL-28): -32%
- GI50 (ACHN): 1.59 µM
- TGI (ACHN): 3.83 µM
- GI50 (RPMI-8226 [3]): 0.357 µM
- TGI (RPMI-8226 [3]): 2.26 µM
- growth at 0.01 µM (MDA-MB-435 [18]): 89%
